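These data come from cells grown in 96-well plates and exposed to compound for 48 hours at five concentrations. At the GI50, growth is halved.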 Active and inactive are the calls of the source. Rule as the data show it: active = GI50 up to about 1.1 µM and inactive = higher.
What was measured:
Test in all cases: DTP human tumour cell line panel, 48 h
OVCAR-4 = system: OVCAR-4
CAKI-1 = system: CAKI-1
BT-549 = system: BT-549
CCRF-CEM = system: CCRF-CEM
HOP-92 = system: HOP-92
HCT-116 = system: HCT-116
NCI-H23 = system: NCI-H23
HCT-15 = system: HCT-15
A498 = system: A498
NCI-H522 = system: NCI-H522
SK-MEL-5 = system: SK-MEL-5
SK-MEL-2 = system: SK-MEL-2
SF-539 = system: SF-539
T47D = system: T47D
U-251 = system: U-251
SNB-75 = system: SNB-75
SK-OV-3 = system: SK-OV-3
NCI/ADR-RES = system: NCI/ADR-RES
OVCAR-8 = system: OVCAR-8
Malme-3M = system: Malme-3M

Measured: GI50

CNS(=O)(=O)c1ccccc1C(=N)c1ccccc1
> 100 µM: HCT-15
inactive: OVCAR-4 > 100 µM | CAKI-1 > 100 µM | BT-549 > 100 µM | CCRF-CEM > 100 µM | HOP-92 > 100 µM | HCT-116 > 100 µM | NCI-H23 > 100 µM | A498 > 100 µM | NCI-H522 > 100 µM | SK-MEL-5 > 100 µM | SK-MEL-2 > 100 µM | SF-539 > 100 µM | T47D > 100 µM | U-251 > 100 µM | SNB-75 56.4 µM | SK-OV-3 > 100 µM | NCI/ADR-RES > 100 µM | OVCAR-8 > 100 µM | Malme-3M > 100 µM

CCCCCCCC(=O)N/N=C/c1ccc(Sc2nccn2C)c([N+](=O)[O-])c1
inactive: OVCAR-4 13.2 µM | CAKI-1 15.5 µM | BT-549 16.1 µM | HOP-92 3.33 µM | HCT-116 14.4 µM | NCI-H23 18.2 µM | A498 15.2 µM | NCI-H522 12.2 µM | SK-MEL-5 12.9 µM | SK-MEL-2 16.6 µM | SF-539 17 µM | T47D 10.7 µM | U-251 16.2 µM | SNB-75 15.5 µM | SK-OV-3 26.7 µM | NCI/ADR-RES 17.7 µM | OVCAR-8 14.4 µM | Malme-3M 14.4 µM
active: CCRF-CEM 0.538 µM
14.5 µM: HCT-15

C1CSCCCSCCCSCCCSCCCSC1
40.6 µM: HCT-15
inactive: OVCAR-4 22.5 µM | CAKI-1 17.7 µM | BT-549 33.8 µM | CCRF-CEM 8.55 µM | HOP-92 24.1 µM | HCT-116 31.2 µM | NCI-H23 26.5 µM | A498 36.2 µM | NCI-H522 27.2 µM | SK-MEL-5 14.2 µM | SK-MEL-2 20.7 µM | SF-539 43.7 µM | T47D 17.2 µM | U-251 42.5 µM | SNB-75 20.1 µM | SK-OV-3 34.4 µM | NCI/ADR-RES 14.9 µM | OVCAR-8 29 µM | Malme-3M 33.3 µM

C=C1c2nc3ccccc3n2C=C(c2ccccc2)N1c1ccc(Cl)cc1
33.3 µM: HCT-15
inactive: OVCAR-4 5.74 µM | CAKI-1 7.08 µM | BT-549 23.4 µM | CCRF-CEM > 100 µM | HOP-92 26.8 µM | HCT-116 18.5 µM | NCI-H23 33.1 µM | A498 > 48.9 µM | NCI-H522 11.5 µM | SK-MEL-5 15.3 µM | SK-MEL-2 69.5 µM | SF-539 7.89 µM | T47D 12.6 µM | U-251 13.1 µM | SNB-75 5.12 µM | SK-OV-3 27.3 µM | NCI/ADR-RES 23.6 µM | OVCAR-8 25.1 µM | Malme-3M 7.85 µM

CN1N=C(c2ccccc2)C(C(c2ccccc2[N+](=O)[O-])C2C(=O)N(C)N=C2c2ccccc2)C1=O (stereo not given)
inactive: OVCAR-4 > 100 µM | CAKI-1 > 100 µM | BT-549 63.4 µM | CCRF-CEM 26.8 µM | HOP-92 > 80.9 µM | HCT-116 > 78.7 µM | NCI-H23 > 100 µM | A498 > 81.8 µM | NCI-H522 99.8 µM | SK-MEL-5 > 100 µM | SK-MEL-2 66.5 µM | SF-539 > 55.5 µM | T47D > 100 µM | U-251 > 100 µM | SNB-75 > 87.1 µM | SK-OV-3 > 100 µM | NCI/ADR-RES > 100 µM | OVCAR-8 39.3 µM | Malme-3M > 100 µM
42.6 µM: HCT-15

N/C(=N\N=C\c1c[nH]c2ccccc12)Nc1ccccc1
inactive: OVCAR-4 1.58 µM | T47D 1.36 µM
0.318 µM: HCT-15
active: CAKI-1 0.519 µM | BT-549 0.527 µM | CCRF-CEM 0.918 µM | HOP-92 0.392 µM | HCT-116 0.214 µM | NCI-H23 0.308 µM | A498 0.256 µM | NCI-H522 0.0596 µM | SK-MEL-5 0.176 µM | SK-MEL-2 0.345 µM | SF-539 0.332 µM | U-251 0.315 µM | SNB-75 0.378 µM | SK-OV-3 0.418 µM | NCI/ADR-RES 0.148 µM | OVCAR-8 0.41 µM | Malme-3M 0.215 µM

O=C1C2C=CC1C1C(=O)OC(=O)C21 (stereo not given)
inactive: OVCAR-4 > 100 µM | CAKI-1 > 100 µM | BT-549 > 100 µM | CCRF-CEM > 100 µM | HOP-92 > 100 µM | HCT-116 > 100 µM | NCI-H23 > 100 µM | A498 > 100 µM | NCI-H522 > 100 µM | SK-MEL-5 > 100 µM | SK-MEL-2 > 100 µM | SF-539 > 100 µM | T47D > 100 µM | U-251 > 100 µM | SNB-75 > 100 µM | SK-OV-3 > 100 µM | NCI/ADR-RES > 100 µM | OVCAR-8 > 100 µM | Malme-3M > 100 µM
> 100 µM: HCT-15

C1COC2SC3=C(SC(=C4SC5=C(SCCS5)S4)S3)SC2O1 (stereo not given)
8.49 µM: HCT-15
inactive: OVCAR-4 31.3 µM | CAKI-1 > 100 µM | BT-549 > 100 µM | CCRF-CEM > 100 µM | HOP-92 > 100 µM | HCT-116 > 100 µM | NCI-H23 > 100 µM | A498 > 100 µM | NCI-H522 31.8 µM | SK-MEL-5 80.2 µM | SK-MEL-2 > 100 µM | SF-539 44 µM | T47D 60.4 µM | U-251 > 100 µM | SNB-75 71.1 µM | SK-OV-3 72.3 µM | NCI/ADR-RES > 100 µM | OVCAR-8 > 100 µM | Malme-3M 13 µM

Cc1cccc2sc(NC(=O)NS(=O)(=O)n3cnc4ccccc43)nc12
inactive: OVCAR-4 43.8 µM | CAKI-1 34.7 µM | BT-549 23.3 µM | CCRF-CEM 76.6 µM | HOP-92 15.3 µM | HCT-116 28.1 µM | NCI-H23 18.4 µM | A498 25.5 µM | NCI-H522 21.6 µM | SK-MEL-5 21.7 µM | SK-MEL-2 18.7 µM | SF-539 24 µM | T47D 15.1 µM | U-251 21 µM | SNB-75 18.8 µM | SK-OV-3 38.3 µM | NCI/ADR-RES 27.4 µM | OVCAR-8 22.5 µM | Malme-3M 25.2 µM
25.9 µM: HCT-15

[O-][n+]1cc(SCc2ccccc2)ncc1SCc1ccccc1
active: BT-549 0.811 µM
inactive: OVCAR-4 > 10 µM | CAKI-1 > 10 µM | CCRF-CEM > 10 µM | HOP-92 > 10 µM | HCT-116 > 10 µM | NCI-H23 > 10 µM | A498 > 10 µM | NCI-H522 > 10 µM | SK-MEL-5 > 10 µM | SK-MEL-2 > 10 µM | SF-539 > 10 µM | T47D > 10 µM | U-251 > 10 µM | SNB-75 > 10 µM | SK-OV-3 > 10 µM | NCI/ADR-RES > 10 µM | OVCAR-8 > 10 µM | Malme-3M > 10 µM
> 10 µM: HCT-15

Cc1cc(Nc2ccc(S(=O)(=O)O)cc2)c2ccccc2n1
inactive: OVCAR-4 > 100 µM | CAKI-1 > 100 µM | BT-549 > 100 µM | CCRF-CEM > 100 µM | HOP-92 > 100 µM | HCT-116 > 100 µM | NCI-H23 > 100 µM | A498 > 100 µM | NCI-H522 > 100 µM | SK-MEL-5 > 100 µM | SK-MEL-2 > 100 µM | SF-539 > 100 µM | T47D > 100 µM | U-251 > 100 µM | SNB-75 > 100 µM | SK-OV-3 > 100 µM | NCI/ADR-RES > 100 µM | OVCAR-8 > 100 µM | Malme-3M > 100 µM
> 100 µM: HCT-15

COc1ccccc1/C=C/c1cnccn1
inactive: OVCAR-4 > 10 µM | CAKI-1 > 10 µM | BT-549 > 10 µM | CCRF-CEM > 10 µM | HOP-92 > 10 µM | HCT-116 > 10 µM | NCI-H23 > 10 µM | A498 > 10 µM | NCI-H522 > 10 µM | SK-MEL-5 > 10 µM | SK-MEL-2 > 10 µM | SF-539 > 10 µM | T47D > 10 µM | U-251 > 10 µM | SNB-75 > 10 µM | SK-OV-3 > 10 µM | NCI/ADR-RES > 10 µM | OVCAR-8 > 10 µM | Malme-3M > 10 µM
> 10 µM: HCT-15

C[C@]12Cc3cnc(-c4ccccc4)nc3C[C@@H]1CC[C@@H]1[C@@H]2CC[C@@]2(C)[C@H]1CC[C@]2(C)O
inactive: OVCAR-4 14.4 µM | CAKI-1 4.98 µM | BT-549 23 µM | CCRF-CEM 13.9 µM | HOP-92 22.8 µM | HCT-116 17.4 µM | NCI-H23 17.6 µM | A498 16.3 µM | NCI-H522 10.7 µM | SK-MEL-5 17.7 µM | SK-MEL-2 21 µM | SF-539 1.33 µM | T47D 11 µM | U-251 16 µM | SNB-75 6.12 µM | SK-OV-3 18 µM | NCI/ADR-RES 15.4 µM | OVCAR-8 14.4 µM | Malme-3M 18.9 µM
9.44 µM: HCT-15

NS(=O)(=O)c1ccc(/N=N/c2ccc(O)c(O)c2)cc1
3.18 µM: HCT-15
inactive: OVCAR-4 5.98 µM | CAKI-1 36.2 µM | BT-549 2.58 µM | CCRF-CEM 3.56 µM | HOP-92 23.7 µM | HCT-116 9.71 µM | NCI-H23 17 µM | A498 24.9 µM | NCI-H522 1.6 µM | SK-MEL-5 6.19 µM | SK-MEL-2 17.2 µM | SF-539 15.9 µM | T47D 34.8 µM | U-251 12.6 µM | SNB-75 25 µM | SK-OV-3 23.3 µM | NCI/ADR-RES 16.9 µM | OVCAR-8 4.88 µM | Malme-3M 21.3 µM

From ChEMBL document CHEMBL1201862, “PubChem BioAssay data set” (2004)
